We go through five molecules from ChEMBL document CHEMBL1143038, “Highly oxygenated and unsaturated metabolites providing a diversity of hispidin class antioxidants in the medicinal mushrooms Inonotus and Phellinus” (Bioorg Med Chem, 2007).

Holding throughout (format): functional
The nature of experiment [1]: Antioxidant activity assessed as superoxide radical anion scavenging activity.
In experiment [2] the test system is Radical scavenging activity. Description: Antioxidant activity assessed as DPPH radical scavenging activity. Background: DPPH is a stable violet radical that fades when it is reduced.
Experiment [3] in a line: Antioxidant activity assessed as ABTS radical scavenging activity.

Broadly, the IC50 is the concentration needed to halve the response being measured.

Turning to `CC(=O)/C(=C\c1ccc(O)c(O)c1)c1c(O)cc(/C=C/c2ccc(O)c(O)c2)oc1=O` [INTERFUNGIN B], the IC50 in experiment [1] is 1.8 µM; in experiment [2], 2.5 µM; in experiment [3], 11.1 µM.
As for `O=C(O)/C=C/c1ccc(O)c(O)c1` [CAFFEIC ACID], the IC50 in experiment [1] came out at 2.2 µM; in experiment [2] it was 3.7 µM; in experiment [3], 25.9 µM.
The corresponding values for VITAMIN E are 3.4 µM, > 100 µM and 11.6 µM.
Take `CC(=O)/C=C(O)/C(=C\c1ccc(O)c(O)c1)c1c(O)cc(/C=C/c2ccc(O)c(O)c2)oc1=O` [INTERFUNGIN A]: the results for the IC50 in experiment [1], in experiment [2] and in experiment [3] were 2.7 µM, 6.3 µM and 14.1 µM, respectively.
With `COC(=O)/C(=C\c1ccc(O)c(O)c1)c1c(O)cc(/C=C/c2ccc(O)c(O)c2)oc1=O` [INTERFUNGIN C], the half-maximal inhibitory concentration (IC50) was 3.1 µM in experiment [1], 3.7 µM in experiment [2] and 11.1 µM in experiment [3].
